Values quoted from earlier work, collected in patent US6815424B2, “Intranasal administration of polypeptides in powdered form” (Pfizer Corporation, priority 1987, dated 2004).

Conditions: in vivo, inhaled or intranasal

bioavailability compared to injection: about 2%
Structure (SMILES): CC(C)C[C@H](NC(=O)[C@@H](Cc1ccc2ccccc2c1)NC(=O)[C@H](Cc1ccc(O)cc1)NC(=O)[C@H](CO)NC(=O)[C@H](Cc1c[nH]c2ccccc12)NC(=O)[C@H](Cc1c[nH]cn1)NC(=O)[C@@H]1CCC(=O)N1)C(=O)N[C@@H](CCCNC(=N)N)C(=O)N1CCC[C@H]1C(=O)NCC(N)=O [nafarelin acetate, L-pyroglutamyl-L-histidyl-L-tryptophyl-L-seryl-L-tyrosyl-D-3-(2-naphthyl)alanyl-L-leucyl-L-arginyl-L-prolyl-glycinamide]
